In ChEMBL document CHEMBL1145470, “Identification of the novel narrow-spectrum beta-lactamase SCO-1 in Acinetobacter spp. from Argentina” (Antimicrob Agents Chemother, 2007):
≈ marks a conversion by molar mass, not a printed value.

Legend:
[1] = test system: Acinetobacter johnsonii; assay: Activity of Acinetobacter johnsonii SCO1
[2] = test system: Acinetobacter johnsonii; assay: Ratio of kcat to Km for Acinetobacter johnsonii SCO1
[3] = test system: Escherichia coli; assay: Antibacterial activity against Escherichia coli DH10B expressing SCO1 by agar dilution technique; format: functional
[4] = test system: Escherichia coli; assay: Antibacterial activity against Escherichia coli DH10B by agar dilution technique; format: functional
[5] = test system: Acinetobacter johnsonii; assay: Antibacterial activity against Acinetobacter johnsonii 7037 expressing SCO1 by agar dilution technique; format: functional
[6] = Inhibition of Acinetobacter johnsonii SCO1

## CC1(C)S[C@@H]2[C@H](NC(=O)Cc3ccccc3)C(=O)N2[C@H]1C(=O)O
[1]
  Km: 20 µM
  kcat: 150 s⁻¹
[2]
  Ratio: 7500 mM⁻¹ s⁻¹

## CC1(C)S[C@@H]2[C@H](NC(=O)[C@H](N)c3ccccc3)C(=O)N2[C@H]1C(=O)O
[1]
  Km: 40 µM
  kcat: 270 s⁻¹
[2]
  Ratio: 6700 mM⁻¹ s⁻¹

## C[C@@H](O)[C@H]1C(=O)N2C(C(=O)O)=C(S[C@@H]3CN[C@H](C(=O)N(C)C)C3)[C@H](C)[C@H]12
[1]
  kcat: < 0.01 s⁻¹

## CC1(C)S[C@@H]2[C@H](NC(=O)[C@H](N)c3ccc(O)cc3)C(=O)N2[C@H]1C(=O)O [AMOXICILLIN]
[3]
  MIC: > 512 µg/mL
[4]
  MIC: 2 µg/mL (≈ 5.47 µM)
[5]
  MIC: > 512 µg/mL

## C[C@H]1[C@H](NC(=O)/C(=N\OC(C)(C)C(=O)O)c2csc(N)n2)C(=O)N1S(=O)(=O)O [AZTREONAM]
[5]
  MIC: > 512 µg/mL
[1]
  kcat: < 0.01 s⁻¹

## CO/N=C(\C(=O)N[C@@H]1C(=O)N2C(C(=O)[O-])=C(C[N+]3(C)CCCC3)CS[C@H]12)c1csc(N)n1 [CEFEPIME]
[3]
  MIC: 0.12 µg/mL (≈ 0.25 µM)
[5]
  MIC: > 512 µg/mL
[1]
  Km: > 2000 µM
  kcat: > 1.5 s⁻¹
[2]
  Ratio: 0.8 mM⁻¹ s⁻¹

## CO/N=C(\C(=O)N[C@@H]1C(=O)N2C(C(=O)O)=C(COC(C)=O)CS[C@H]12)c1csc(N)n1 [CEFOTAXIME]
[3]
  MIC: 0.25 µg/mL (≈ 0.549 µM)
[4]
  MIC: 0.12 µg/mL (≈ 0.263 µM)
[5]
  MIC: > 512 µg/mL
[1]
  Km: 2000 µM
  kcat: 0.1 s⁻¹
[2]
  Ratio: 0.05 mM⁻¹ s⁻¹

## CO[C@@]1(NC(=O)Cc2cccs2)C(=O)N2C(C(=O)O)=C(COC(N)=O)CS[C@@H]21 [CEFOXITIN]
[3]
  MIC: 4 µg/mL (≈ 9.36 µM)
[4]
  MIC: 4 µg/mL (≈ 9.36 µM)
[5]
  MIC: > 512 µg/mL
[1]
  kcat: < 0.01 s⁻¹

## CC(C)(O/N=C(\C(=O)N[C@@H]1C(=O)N2C(C(=O)[O-])=C(C[n+]3ccccc3)CS[C@H]12)c1csc(N)n1)C(=O)O [CEFTAZIDIME]
[3]
  MIC: 0.5 µg/mL (≈ 0.915 µM)
[4]
  MIC: 0.06 µg/mL (≈ 0.11 µM)
[5]
  MIC: > 512 µg/mL
[1]
  Km: 600 µM
  kcat: 0.3 s⁻¹
[2]
  Ratio: 0.5 mM⁻¹ s⁻¹

## CO/N=C(\C(=O)N[C@@H]1C(=O)N2C(C(=O)O)=C(COC(N)=O)CS[C@H]12)c1ccco1 [CEFUROXIME]
[3]
  MIC: 4 µg/mL (≈ 9.43 µM)
[4]
  MIC: 2 µg/mL (≈ 4.71 µM)
[5]
  MIC: > 512 µg/mL
[1]
  Km: 650 µM
  kcat: 0.05 s⁻¹
[2]
  Ratio: 0.08 mM⁻¹ s⁻¹

## CC(=O)OCC1=C(C(=O)O)N2C(=O)[C@@H](NC(=O)Cc3cccs3)[C@H]2SC1 [CEPHALOTHIN]
[3]
  MIC: 8 µg/mL (≈ 20.2 µM)
[4]
  MIC: 2 µg/mL (≈ 5.04 µM)
[5]
  MIC: > 512 µg/mL
[1]
  Km: 120 µM
  kcat: 0.1 s⁻¹
[2]
  Ratio: 1 mM⁻¹ s⁻¹

## O=C(O)[C@H]1/C(=C/CO)O[C@@H]2CC(=O)N21 [CLAVULANIC ACID]
[6]
  IC50: 300 nM

## C[C@@H](O)[C@H]1C(=O)N2C(C(=O)O)=C(SCCNC=N)C[C@H]12 [IMIPENEM ANHYDROUS]
[5]
  MIC: 0.12 µg/mL (≈ 0.401 µM)
[1]
  Km: 3800 µM
  kcat: 0.03 s⁻¹
[2]
  Ratio: 0.008 mM⁻¹ s⁻¹

## CCN1CCN(C(=O)N[C@@H](C(=O)N[C@@H]2C(=O)N3[C@@H]2SC(C)(C)[C@@H]3C(=O)O)c2ccccc2)C(=O)C1=O [PIPERACILLIN]
[3]
  MIC: 128 µg/mL (≈ 247 µM)
[4]
  MIC: 1 µg/mL (≈ 1.93 µM)
[5]
  MIC: 64 µg/mL (≈ 124 µM)
[1]
  Km: 10 µM
  kcat: 0.4 s⁻¹
[2]
  Ratio: 40 mM⁻¹ s⁻¹

## C[C@]1(Cn2ccnn2)[C@H](C(=O)O)N2C(=O)C[C@H]2S1(=O)=O [TAZOBACTAM]
[6]
  IC50: 1200 nM

## CC1(C)S[C@@H]2[C@H](NC(=O)[C@H](C(=O)O)c3ccsc3)C(=O)N2[C@H]1C(=O)O [TICARCILLIN]
[3]
  MIC: > 512 µg/mL
[4]
  MIC: 2 µg/mL (≈ 5.2 µM)
[5]
  MIC: > 512 µg/mL
[1]
  Km: 80 µM
  kcat: 35 s⁻¹
[2]
  Ratio: 450 mM⁻¹ s⁻¹
